The values below come from patent publication US20220169628A1 (University of Florida Research Foundation, Incorporated, priority 2019, published 2022).

Bounds are passed on as bounds.

Common to all, as to type: cell-based
Assay [1] relates to MOLT-4 cells. In words: Cell viability assay, MTS, 72 h, MOLT-4. The conditions noted are these: Homo sapiens; MOLT-4 cells, 72 h, MTS. As for the experimental part: (§1) Cancer cells from different tissue origins including acute lymphoblastic leukemia (MOLT4 and RS4; 11), small cell lung cancer (NCI-H146 or simply H146), and multiple myeloma (EJM and H929) were incubated with increasing concentrations of Examples 1-21 or ABT-263 for 72 h. Cell viability was measured by tetrazolium-based MTS assay. 5×10^4 to 1×10^5 suspension cells or 3×10^3 to 5×10^3 adherent cells were seeded and treated in 96-well plates for 72 h. The EC50 values of individual agents were calculated with GraphPad Prism.

Another assay has as its system RS4 cells. Briefly: Cell viability assay, MTS, 72 h, RS4;11. The conditions noted are these: Homo sapiens. On the procedure: as §1
The subject of assay [2] is MOLT-4 cells. In words: Cell viability assay, MTS, 48 h, MOLT-4. The following applies: Homo sapiens, MOLT-4, 48 h, 48 hours, read-out: IC50 (48 hours) MOLT-4. As for the experimental part:
(§2) Acute lymphoblastic leukemia cells (MOLT-4 and RS4; 11) or small cell lung cancer (NCI-H146 or simply H146) were incubated with increasing concentrations of Bcl-xL degraders for 48 h. Cell viability was measured by tetrazolium-based MTS assay.

In another assay the test system is RS4;11 cells. In words: Cell viability assay, MTS, 48 h, RS4;11. The following applies: Homo sapiens, RS4-11, 48 h, 48 hours, read-out: IC50 (48 hours) RS4;11. As for the experimental part: as §2

Broadly, the IC50 is the point on the concentration scale where inhibition reaches its midpoint. `Cc1ncsc1-c1ccc([C@H](C)NC(=O)[C@@H]2C[C@@H](O)CN2C(=O)[C@@H](NC(=O)CCCCC(=O)NCC2(C)CCC(c3ccc(Cl)cc3)=C(CN3CCN(c4ccc(C(=O)NS(=O)(=O)c5ccc(N[C@H](CCN6CCOCC6)CSc6ccccc6)c(S(=O)(=O)C(F)(F)F)c5)cc4)CC3)C2)C(C)(C)C)cc1` (stereo partly drawn) [Compound 49, N′-((4′-chloro-4-methyl-6-((4-(4-(((4-(((R)-4-morpholino-1-(phenylthio)butan-2-yl)amino)-3-((trifluoromethyl)sulfonyl)phenyl)sulfonyl)carbamoyl)phenyl)piperazin-1-yl)methyl)-2,3,4,5-tetrahydro-[1,1′-biphenyl]-4-yl)methyl)-N^6—((S)-1-((2S,4R)-4-hydroxy-2-(((S)-1-(4-(4-methylthiazol-5-yl)phenyl)ethyl)carbamoyl)pyrrolidin-1-yl)-3,3-dimethyl-1-oxobutan-2-yl)adipamide]: the 50% inhibitory concentration (IC50) stood at 340 nM in the assay on MOLT-4 cells [1] and 303 nM with RS4 cells.
On to `Cc1ncsc1-c1ccc([C@H](C)NC(=O)[C@@H]2C[C@@H](O)CN2C(=O)[C@@H](NC(=O)CCCCCCCCCC(=O)NCC2(C)CCC(c3ccc(Cl)cc3)=C(CN3CCN(c4ccc(C(=O)NS(=O)(=O)c5ccc(N[C@H](CCN6CCOCC6)CSc6ccccc6)c(S(=O)(=O)C(F)(F)F)c5)cc4)CC3)C2)C(C)(C)C)cc1` (stereo partly drawn) [Compound 54, N^1-((4′-chloro-4-methyl-6-((4-(4-(((4-(((R)-4-morpholino-1-(phenylthio)butan-2-yl)amino)-3-((trifluoromethyl)sulfonyl)phenyl)sulfonyl)carbamoyl)phenyl)piperazin-1-yl)methyl)-2,3,4,5-tetrahydro-[1,1′-biphenyl]-4-yl)methyl)-N^11—((S)-1-((2S,4R)-4-hydroxy-2-(((S)-1-(4-(4-methylthiazol-5-yl)phenyl)ethyl)carbamoyl)pyrrolidin-1-yl)-3,3-dimethyl-1-oxobutan-2-yl)undecanediamide], for which the IC50 in the assay on MOLT-4 cells [1] stood at 74 nM; in the assay on RS4 cells it was 19.4 nM.
For `Cc1ncsc1-c1ccc([C@H](C)NC(=O)[C@@H]2C[C@@H](O)CN2C(=O)[C@@H](NC(=O)CCCCCC(=O)NCC2(C)CCC(c3ccc(Cl)cc3)=C(CN3CCN(c4ccc(C(=O)NS(=O)(=O)c5ccc(N[C@H](CCN6CCOCC6)CSc6ccccc6)c(S(=O)(=O)C(F)(F)F)c5)cc4)CC3)C2)C(C)(C)C)cc1` (stereo partly drawn) [Compound 50, N^1-((4′-chloro-4-methyl-6-((4-(4-(((4-(((R)-4-morpholino-1-(phenylthio)butan-2-yl)amino)-3-((trifluoromethyl)sulfonyl)phenyl)sulfonyl)carbamoyl)phenyl)piperazin-1-yl)methyl)-2,3,4,5-tetrahydro-[1,1′-biphenyl]-4-yl)methyl)-N^7—((S)-1-((2S,4R)-4-hydroxy-2-(((S)-1-(4-(4-methylthiazol-5-yl)phenyl)ethyl)carbamoyl)pyrrolidin-1-yl)-3,3-dimethyl-1-oxobutan-2-yl)heptanediamide], in that order: 187 nM and 99 nM.
As for `Cc1ncsc1-c1ccc([C@H](C)NC(=O)[C@@H]2C[C@@H](O)CN2C(=O)[C@@H](NC(=O)COCCOCCOCCOCCOC(=O)N2CCC(c3ccc(Cl)cc3)=C(CN3CCN(c4ccc(C(=O)NS(=O)(=O)c5ccc(N[C@H](CCN6CCOCC6)CSc6ccccc6)c(S(=O)(=O)C(F)(F)F)c5)cc4)CC3)C2)C(C)(C)C)cc1` [Compound 36, (S)-16-((2S,4R)-4-hydroxy-2-(((S)-1-(4-(4-methylthiazol-5-yl)phenyl)ethyl)carbamoyl)pyrrolidine-1-carbonyl)-17,17-dimethyl-14-oxo-3,6,9,12-tetraoxa-15-azaoctadecyl 4-(4-chlorophenyl)-5-((4-(4-(((4-(((R)-4-morpholino-1-(phenylthio)butan-2-yl)amino)-3-((trifluoromethyl)sulfonyl)phenyl)sulfonyl)carbamoyl)phenyl)piperazin-1-yl)methyl)-3,6-dihydropyridine-1(2H)-carboxylate], the half-inhibitory concentration (IC50) with MOLT-4 cells [1] stood at 342 nM; in the assay on RS4 cells, 1750 nM.
For `Cc1ncsc1-c1ccc([C@H](C)NC(=O)[C@@H]2C[C@@H](O)CN2C(=O)[C@@H](NC(=O)COCCOCCOCCOCCOCC(=O)NCC2(C)CCC(c3ccc(Cl)cc3)=C(CN3CCN(c4ccc(C(=O)NS(=O)(=O)c5ccc(N[C@H](CCN6CCOCC6)CSc6ccccc6)c(S(=O)(=O)C(F)(F)F)c5)cc4)CC3)C2)C(C)(C)C)cc1` (stereo partly drawn) [Compound 60, N^1-((4′-chloro-4-methyl-6-((4-(4-(((4-(((R)-4-morpholino-1-(phenylthio)butan-2-yl)amino)-3-((trifluoromethyl)sulfonyl)phenyl)sulfonyl)carbamoyl)phenyl)piperazin-1-yl)methyl)-2,3,4,5-tetrahydro-[1,1′-biphenyl]-4-yl)methyl)-N^17—((S)-1-((2S,4R)-4-hydroxy-2-(((S)-1-(4-(4-methylthiazol-5-yl)phenyl)ethyl)carbamoyl)pyrrolidin-1-yl)-3,3-dimethyl-1-oxobutan-2-yl)-3,6,9,12,15-pentaoxaheptadecanediamide], in that order: 1410 nM and 758 nM.
For `Cc1ncsc1-c1ccc([C@H](C)NC(=O)[C@@H]2C[C@@H](O)CN2C(=O)[C@@H](NC(=O)CCCCCCCCCCCC(=O)NCC2(C)CCC(c3ccc(Cl)cc3)=C(CN3CCN(c4ccc(C(=O)NS(=O)(=O)c5ccc(N[C@H](CCN6CCOCC6)CSc6ccccc6)c(S(=O)(=O)C(F)(F)F)c5)cc4)CC3)C2)C(C)(C)C)cc1` (stereo partly drawn) [Compound 56, N^1-((4′-chloro-4-methyl-6-((4-(4-(((4-(((R)-4-morpholino-1-(phenylthio)butan-2-yl)amino)-3-((trifluoromethyl)sulfonyl)phenyl)sulfonyl)carbamoyl)phenyl)piperazin-1-yl)methyl)-2,3,4,5-tetrahydro-[1,1′-biphenyl]-4-yl)methyl)-N^13—((S)-1-((2S,4R)-4-hydroxy-2-(((S)-1-(4-(4-methylthiazol-5-yl)phenyl)ethyl)carbamoyl)pyrrolidin-1-yl)-3,3-dimethyl-1-oxobutan-2-yl)tridecanediamide], in that order: 333 nM and 410 nM.
With `Cc1ncsc1-c1ccc([C@H](C)NC(=O)[C@@H]2C[C@@H](O)CN2C(=O)[C@@H](NC(=O)CCCCCCC(=O)N2CCN(CC3(C)CCC(c4ccc(Cl)cc4)=C(CN4CCN(c5ccc(C(=O)NS(=O)(=O)c6ccc(N[C@H](CCN7CCOCC7)CSc7ccccc7)c(S(=O)(=O)C(F)(F)F)c6)cc5)CC4)C3)CC2)C(C)(C)C)cc1` (stereo partly drawn) [degrader #17, (2S,4R)-1-((2S)-2-(8-(4-((4′-chloro-4-methyl-6-((4-(4-(((4-(((R)-4-morpholino-1-(phenylthio)butan-2-yl)amino)-3-((trifluoromethyl)sulfonyl)phenyl)sulfonyl)carbamoyl)phenyl)piperazin-1-yl)methyl)-2,3,4,5-tetrahydro-[1,1′-biphenyl]-4-yl)methyl)piperazin-1-yl)-8-oxooctanamido)-3,3-dimethylbutanoyl)-4-hydroxy-N—((S)-1-(4-(4-methylthiazol-5-yl)phenyl)ethyl)pyrrolidine-2-carboxamide], the IC50 in the assay with MOLT-4 cells [2] and in the assay with RS4;11 cells was under 50 nM each time.
Regarding `Cc1ncsc1-c1ccc([C@H](C)NC(=O)[C@@H]2C[C@@H](O)CN2C(=O)[C@@H](NC(=O)CCCCCCCCCCC(=O)N2CCC(c3ccc(Cl)cc3)=C(CN3CCN(c4ccc(C(=O)NS(=O)(=O)c5ccc(N[C@H](CCN6CCOCC6)CSc6ccccc6)c(S(=O)(=O)C(F)(F)F)c5)cc4)CC3)C2)C(C)(C)C)cc1` [compound 85, (2S,4R)-1-((S)-2-(12-(4-(4-chlorophenyl)-5-((4-(4-(((4-(((R)-4-morpholino-1-(phenylthio)butan-2-yl)amino)-3-((trifluoromethyl)sulfonyl)phenyl)sulfonyl)carbamoyl)phenyl)piperazin-1-yl)methyl)-3,6-dihydropyridin-1(2H)-yl)-12-oxododecanamido)-3,3-dimethylbutanoyl)-4-hydroxy-N—((S)-1-(4-(4-methylthiazol-5-yl)phenyl)ethyl)pyrrolidine-2-carboxamide], the concentration for half-maximal inhibition (IC50) in the assay on MOLT-4 cells [2] and in the assay with RS4;11 cells was 50 to 150 nM each time.
As to `Cc1ncsc1-c1ccc([C@H](C)NC(=O)[C@@H]2C[C@@H](O)CN2C(=O)[C@@H](NC(=O)COCCOCCOCCOCC(=O)NCC2(C)CCC(c3ccc(Cl)cc3)=C(CN3CCN(c4ccc(C(=O)NS(=O)(=O)c5ccc(N[C@H](CCN6CCOCC6)CSc6ccccc6)c(S(=O)(=O)C(F)(F)F)c5)cc4)CC3)C2)C(C)(C)C)cc1` (stereo partly drawn) [degrader #9, N1-((4′-chloro-4-methyl-6-((4-(4-(((4-(((R)-4-morpholino-1-(phenylthio)butan-2-yl)amino)-3-((trifluoromethyl)sulfonyl)phenyl)sulfonyl)carbamoyl)phenyl)piperazin-1-yl)methyl)-2,3,4,5-tetrahydro-[1,1′-biphenyl]-4-yl)methyl)-N14-((S)-1-((2S,4R)-4-hydroxy-2-(((S)-1-(4-(4-methylthiazol-5-yl)phenyl)ethyl)carbamoyl)pyrrolidin-1-yl)-3,3-dimethyl-1-oxobutan-2-yl)-3,6,9,12-tetraoxatetradecanediamide], the 50% inhibitory concentration (IC50) in the assay on MOLT-4 cells [2] is over 500 nM; in the assay with RS4;11 cells it was 150 to 500 nM.
